Assay results from patent US10772893B2, “2-(morpholin-4-yl)-1,7-naphthyridines” (BAYER PHARMA AKTIENGESELLSCHAFT, priority 2014, dated 2020).
Where two headings read alike, the source gives them in different places.

Columns and labels:
human ATR = human ATR (Homo sapiens (Human), UniProt Q13535); test: ATR binding assay (TR-FRET, displacement of fluorescent tracer A or B)
Text: To determine of binding activity of the test compounds, full-length human ATR protein was expressed and purified together with ATRIP as described above. Furthermore, a fluorescently labelled compound (either tracer A or B as described above) was used as a tracer molecule. Detection of the binding event of the tracer was achieved by time-resolved fluorescence energy transfer (TR-FRET). We used an anti-GST-Terbium antibody (CisBio) that binds to the GST-tag at the N-terminus of ATR-kinase. […] Displacement of the fluorescent tracer by a test compound leads to a reduction of the TR-FRET-signal.
For the assay 50 nl of a 100-fold concentrated solution of the test compound in DMSO was pipetted into a black low volume 384 well microtiter plate (MTP, Greiner Bio-One, Frickenhausen, Germany). […] The ATR-working solution was incubated for 30 min at 22° C. prior to dispensing to pre-form the complex of antiGST-Tb+GST-ATR+ATRIP. Then, 3 μl of the ATR-working solution were added to the test compound and the mixture was incubated for 10 min at 22° C. to allow pre-binding of the test compounds to ATR/ATRIP. Then, 2 μl of a 100 nM solution of either tracer A or B in assay buffer were added to the ATR-working solution. The resulting mixture was incubated for 30 min at 22° C. […] IC50 values were calculated by a 4 parameter fit using standard software (GraphPad prism or equivalent).

HeLa-MaTu-ADR cells = test: Proliferation assay, crystal violet staining; assay type: cell-based; details: Homo sapiens, 96 h, 4 days incubation, read-out: Inhibition of HeLa-MaTu-ADR cell proliferation
Experimental: (§1) After 24 hours, the cells of one plate (zero plate) were dyed with crystal violet (see below), whereas the medium of the other plates was replaced with fresh culture medium (200 μl) to which the test substances were added in various concentrations (0 μM, and also in the range of 0.001-10 μM; the final concentration of the solvent dimethyl sulphoxide was 0.1 or 0.5%). The cells were incubated for 4 days in the presence of the test substances. […] After washing the fixed cells three times with water, the plates were dried at room temperature. The cells were stained by adding 100 μl/measurement point of a 0.1% strength crystal violet solution (pH adjusted to pH 3 by adding acetic acid). After washing the cells three times with water, the plates were dried at room temperature. The dye was dissolved by adding 100 μl/measurement point of a 10% strength acetic acid solution. […] The percentage change in cell growth was calculated by normalizing the measured values to the absorbance values of the zero plate (=0%) and the absorbance of the untreated (0 W) cells (=100%). The IC50 values were determined by means of a four parameter fit.

HeLa cells = test: Proliferation assay, crystal violet staining; details: Homo sapiens, 96 h
B16F10 cells = test: Proliferation assay, crystal violet staining; details: B16-F10, 96 h, read-out: Inhibition of B16F10 cell proliferation
Experimental: Human tumour cells (Table 8) were originally obtained from the American Type Culture Collection (ATCC), the Deutsche Sammlung von Mikroorganismen and Zellkulturen (DSMZ, German Collection of Microorganisms and Cell Cultures), or Epo GmbH Berlin. […] After 24 hours, the cells of one plate (zero plate) were dyed with crystal violet (see below), whereas the medium of the other plates was replaced with fresh culture medium (200 μl) to which the test substances were added in various concentrations (0 μM, and also in the range of 0.001-10 μM; the final concentration of the solvent dimethyl sulphoxide was 0.1 or 0.5%). The cells were incubated for 4 days in the presence of the test substances. […] After washing the fixed cells three times with water, the plates were dried at room temperature. The cells were stained by adding 100 μl/measurement point of a 0.1% strength crystal violet solution (pH adjusted to pH 3 by adding acetic acid). After washing the cells three times with water, the plates were dried at room temperature. The dye was dissolved by adding 100 μl/measurement point of a 10% strength acetic acid solution. […] The percentage change in cell growth was calculated by normalizing the measured values to the absorbance values of the zero plate (=0%) and the absorbance of the untreated (0 W) cells (=100%). The IC50 values were determined by means of a four parameter fit.

DU145 cells = test: Proliferation assay, crystal violet staining; details: Homo sapiens, DU-145, 96 h, read-out: Inhibition of DU145 cell proliferation, DU145 cells, 4 days incubation
Experimental: as §1

Caco-2 cells = test: Proliferation assay, crystal violet staining; assay type: cell-based; details: Homo sapiens, Caco-2, 96 h, 4 days incubation, read-out: Inhibition of Caco-2 cell proliferation
Experimental: as §1

NCI-H460 cells = test: Proliferation assay, crystal violet staining; details: Homo sapiens, NCI-H460, 96 h, read-out: Inhibition of NCI-H460 cell proliferation, NCI-H460 cells, 4 days incubation
Experimental: as §1

[1] = read-out: Inhibition of HeLa cell proliferation, HeLa cells, 4 days incubation

human ATR, sequence (Q13535 other isoform, or with tags, fused parts or gaps): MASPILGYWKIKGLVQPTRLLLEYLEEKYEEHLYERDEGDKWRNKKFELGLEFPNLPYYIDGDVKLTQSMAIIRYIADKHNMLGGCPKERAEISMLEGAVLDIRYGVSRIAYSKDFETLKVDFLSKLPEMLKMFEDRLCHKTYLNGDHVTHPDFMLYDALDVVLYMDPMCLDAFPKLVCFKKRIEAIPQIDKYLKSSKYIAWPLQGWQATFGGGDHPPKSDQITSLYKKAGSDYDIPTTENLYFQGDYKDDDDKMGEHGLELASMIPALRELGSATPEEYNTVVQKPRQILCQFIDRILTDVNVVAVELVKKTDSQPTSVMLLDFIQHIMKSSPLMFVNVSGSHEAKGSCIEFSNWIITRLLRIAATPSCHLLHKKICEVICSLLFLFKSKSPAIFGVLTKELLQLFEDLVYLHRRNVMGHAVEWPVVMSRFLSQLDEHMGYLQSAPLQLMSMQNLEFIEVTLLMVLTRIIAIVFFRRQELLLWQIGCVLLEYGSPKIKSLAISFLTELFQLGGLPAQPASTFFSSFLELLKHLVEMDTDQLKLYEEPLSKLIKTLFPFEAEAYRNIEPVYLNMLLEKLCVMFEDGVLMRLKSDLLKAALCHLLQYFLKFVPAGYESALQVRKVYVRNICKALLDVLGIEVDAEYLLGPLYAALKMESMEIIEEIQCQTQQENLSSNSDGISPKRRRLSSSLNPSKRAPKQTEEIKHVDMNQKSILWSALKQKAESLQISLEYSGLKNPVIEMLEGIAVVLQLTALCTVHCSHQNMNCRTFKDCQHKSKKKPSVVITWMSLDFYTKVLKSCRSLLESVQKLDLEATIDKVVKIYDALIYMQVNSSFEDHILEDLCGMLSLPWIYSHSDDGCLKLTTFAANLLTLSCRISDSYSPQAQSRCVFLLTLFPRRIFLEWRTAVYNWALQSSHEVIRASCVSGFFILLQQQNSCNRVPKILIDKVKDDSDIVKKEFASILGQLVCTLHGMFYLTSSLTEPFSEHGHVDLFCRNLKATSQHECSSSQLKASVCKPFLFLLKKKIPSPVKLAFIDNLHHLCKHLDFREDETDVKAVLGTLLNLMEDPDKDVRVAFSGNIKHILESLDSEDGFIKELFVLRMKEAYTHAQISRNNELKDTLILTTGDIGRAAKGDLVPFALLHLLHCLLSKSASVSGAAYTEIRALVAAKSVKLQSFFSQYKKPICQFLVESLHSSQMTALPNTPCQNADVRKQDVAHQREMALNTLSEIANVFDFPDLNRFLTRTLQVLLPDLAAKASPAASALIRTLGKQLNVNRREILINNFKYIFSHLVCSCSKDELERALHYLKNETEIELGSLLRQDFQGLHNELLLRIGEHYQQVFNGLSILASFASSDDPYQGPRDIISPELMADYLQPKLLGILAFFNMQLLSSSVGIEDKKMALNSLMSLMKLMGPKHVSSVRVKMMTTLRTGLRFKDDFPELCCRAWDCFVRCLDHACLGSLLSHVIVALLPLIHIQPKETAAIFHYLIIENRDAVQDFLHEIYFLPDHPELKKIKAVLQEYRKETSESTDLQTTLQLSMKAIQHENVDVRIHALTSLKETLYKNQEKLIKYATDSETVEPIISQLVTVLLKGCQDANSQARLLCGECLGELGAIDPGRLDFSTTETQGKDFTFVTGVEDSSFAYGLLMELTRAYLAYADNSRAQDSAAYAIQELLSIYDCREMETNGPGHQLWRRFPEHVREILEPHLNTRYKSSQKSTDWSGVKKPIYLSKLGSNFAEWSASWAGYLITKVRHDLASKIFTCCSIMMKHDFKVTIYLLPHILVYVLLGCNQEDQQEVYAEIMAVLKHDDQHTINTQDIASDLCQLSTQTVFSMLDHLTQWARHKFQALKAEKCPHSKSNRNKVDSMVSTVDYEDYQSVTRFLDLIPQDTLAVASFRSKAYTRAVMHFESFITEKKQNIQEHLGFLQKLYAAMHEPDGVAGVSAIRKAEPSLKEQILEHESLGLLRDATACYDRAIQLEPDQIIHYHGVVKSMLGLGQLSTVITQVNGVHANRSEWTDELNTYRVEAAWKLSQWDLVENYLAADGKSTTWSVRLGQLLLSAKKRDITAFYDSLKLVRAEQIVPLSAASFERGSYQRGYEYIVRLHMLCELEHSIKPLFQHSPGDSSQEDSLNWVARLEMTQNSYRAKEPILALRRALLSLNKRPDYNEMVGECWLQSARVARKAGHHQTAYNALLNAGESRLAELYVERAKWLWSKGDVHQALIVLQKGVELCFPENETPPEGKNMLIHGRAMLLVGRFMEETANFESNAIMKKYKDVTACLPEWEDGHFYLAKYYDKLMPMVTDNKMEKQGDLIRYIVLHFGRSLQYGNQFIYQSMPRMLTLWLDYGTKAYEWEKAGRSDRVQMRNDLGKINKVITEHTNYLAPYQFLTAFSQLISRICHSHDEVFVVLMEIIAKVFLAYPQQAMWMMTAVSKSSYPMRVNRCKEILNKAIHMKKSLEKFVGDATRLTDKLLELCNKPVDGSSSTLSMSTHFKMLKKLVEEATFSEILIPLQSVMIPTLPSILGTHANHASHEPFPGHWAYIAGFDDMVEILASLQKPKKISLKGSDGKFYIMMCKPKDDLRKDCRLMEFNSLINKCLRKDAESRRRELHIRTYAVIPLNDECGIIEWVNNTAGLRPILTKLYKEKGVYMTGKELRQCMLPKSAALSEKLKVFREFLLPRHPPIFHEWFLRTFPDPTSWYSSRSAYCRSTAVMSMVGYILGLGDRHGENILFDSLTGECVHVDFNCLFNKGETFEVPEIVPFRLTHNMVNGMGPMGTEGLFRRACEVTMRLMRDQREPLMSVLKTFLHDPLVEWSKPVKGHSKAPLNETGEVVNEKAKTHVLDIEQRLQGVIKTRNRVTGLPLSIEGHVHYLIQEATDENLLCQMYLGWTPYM
human ATR, sequence (Q8WXE1 other isoform, or with tags, fused parts or gaps partner): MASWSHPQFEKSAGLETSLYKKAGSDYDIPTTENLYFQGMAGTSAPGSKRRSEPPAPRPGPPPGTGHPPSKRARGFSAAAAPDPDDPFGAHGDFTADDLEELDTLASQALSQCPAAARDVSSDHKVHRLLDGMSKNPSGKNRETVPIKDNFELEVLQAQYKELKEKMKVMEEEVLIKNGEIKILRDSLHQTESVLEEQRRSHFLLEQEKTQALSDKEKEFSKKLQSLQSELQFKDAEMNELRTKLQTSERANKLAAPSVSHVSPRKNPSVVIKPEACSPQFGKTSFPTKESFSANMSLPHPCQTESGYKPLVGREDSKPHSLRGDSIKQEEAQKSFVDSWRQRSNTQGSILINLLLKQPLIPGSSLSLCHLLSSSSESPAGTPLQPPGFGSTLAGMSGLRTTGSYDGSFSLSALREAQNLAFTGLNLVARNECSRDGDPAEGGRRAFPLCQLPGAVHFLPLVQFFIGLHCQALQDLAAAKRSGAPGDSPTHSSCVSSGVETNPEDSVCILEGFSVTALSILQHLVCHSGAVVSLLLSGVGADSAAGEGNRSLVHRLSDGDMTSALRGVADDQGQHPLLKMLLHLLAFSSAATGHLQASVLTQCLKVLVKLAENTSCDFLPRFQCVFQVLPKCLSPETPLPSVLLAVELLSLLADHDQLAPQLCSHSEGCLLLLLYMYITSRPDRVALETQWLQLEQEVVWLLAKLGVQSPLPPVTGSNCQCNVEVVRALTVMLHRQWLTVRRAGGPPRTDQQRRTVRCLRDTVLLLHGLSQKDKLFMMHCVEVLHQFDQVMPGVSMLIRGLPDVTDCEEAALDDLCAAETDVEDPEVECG

SMILES	IC50 (human ATR) [nM]	IC50 (HeLa-MaTu-ADR cells) [nM]	IC50 (HeLa cells; read-out: Inhibition of HeLa cell proliferation) [nM]	IC50 (B16F10 cells) [nM]	IC50 (DU145 cells) [nM]	IC50 (Caco-2 cells) [nM]	IC50 (HeLa cells; [1]) [nM]	IC50 (NCI-H460 cells) [nM]
CC1(C)C[C@@H]2C[C@@](C)(CN2c2cc(N3CCOCC3)nc3c(-c4ccn[nH]4)nccc23)C1 (stereo in doubt) [Example 421, 2-(morpholin-4-yl)-8-(1H-pyrazol-5-yl)-4-[1,3,3-trimethyl-6-azabicyclo[3.2.1]oct-6-yl]-1,7-naphthyridine]	1790							
CCOP(C)(=O)c1cc(N2CCOC[C@H]2C)nc2c(-c3ccn[nH]3)nccc12 (stereo partly drawn) [Example 125, ethyl methyl{2-[(3R)-3-methylmorpholin-4-yl]-8-(1H-pyrazol-5-yl)-1,7-naphthyridin-4-yl}phosphinate]		> 3000	705	> 3000	712	> 3000		
CC(C)S(=O)(=O)c1cc(N2CCOCC2)nc2c(-c3ccn[nH]3)nccc12 [Example 199, 2-(morpholin-4-yl)-4-(propan-2-ylsulfonyl)-8-(1H-pyrazol-5-yl)-1,7-naphthyridine]		965			244	708	857	320
C[C@@H]1COCCN1c1cc(-c2ccn[nH]2)c2ccnc(-c3ccn[nH]3)c2n1 [Example 205, 2-[(3R)-3-methylmorpholin-4-yl]-4,8-di(1H-pyrazol-5-yl)-1,7-naphthyridine]		1490			652	1240	672	219
O=S1(=O)CCCN1c1cc(N2CCOCC2)nc2c(-c3ccn[nH]3)nccc12 [Example 216, 4-(1,1-dioxido-1,2-thiazolidin-2-yl)-2-(morpholin-4-yl)-8-(1H-pyrazol-5-yl)-1,7-naphthyridine]		> 3000			1660	> 3000	1010	1110
COc1ncccc1-c1cc(N2CCOC[C@H]2C)nc2c(-c3ccn[nH]3)nccc12 [Example 220, 4-(2-methoxypyridin-3-yl)-2-[(3R)-3-methylmorpholin-4-yl]-8-(1H-pyrazol-5-yl)-1,7-naphthyridine]		993			334	> 1000	604	303
C[C@@H]1COCCN1c1cc(-c2ccc(F)nc2F)c2ccnc(-c3ccn[nH]3)c2n1 [Example 228, 4-(2,6-difluoropyridin-3-yl)-2-[(3R)-3-methylmorpholin-4-yl]-8-(1H-pyrazol-5-yl)-1,7-naphthyridine]		594			313	637	225	233
CC(C)S(=O)(=Nc1cc(N2CCOC[C@H]2C)nc2c(-c3ccn[nH]3)nccc12)c1ccc(Br)cc1 (stereo partly drawn) [Example 275]	304							
C[C@@H]1COCCN1c1cc(C2(S(C)(=O)=O)CC2)c2ccnc(-c3ccn[nH]3)c2n1 [Example 286, 2-[(3R)-3-methylmorpholin-4-yl]-4-[1-(methylsulfonyl)cyclopropyl]-8-(1H-pyrazol-5-yl)-1,7-naphthyridine]		882			48.6	529	293	75.6
Cn1nccc1-c1cc(N2CCOCC2)nc2c(-c3ccn[nH]3)nccc12 [Example 348, 4-(1-methyl-1H-pyrazol-5-yl)-2-(morpholin-4-yl)-8-(1H-pyrazol-5-yl)-1,7-naphthyridine]		940			518	822	613	399
